# Patent US20020143062A1, “Method to incorporate N-(4-hydroxyphenyl) retinamide in liposomes” (Board of Regents, The University of Texas System, priority 2000, published 2002)
# Where a name gives a salt, the structure may show the parent alone. Read-outs that look alike come from different tables or passages of the source. Starred links: 1 amine or outer side, 2 acyl side, 3 side chain; linkers in the order of their positions; H or OH if unused. Positions of bridges follow the written chain, without caps; N, C: chain ends. Non-standard residues stand in square brackets, D forms with d. Residues, ends and D or L forms follow the SMILES beside them. Chains are numbered I, II in the order given. Actinocin(9to1) = Cc1c2oc3c(C)ccc(C(=O)[*:1])c3nc-2c(C(=O)[*:2])c(N)c1=O; NMeV = CN[C@H](C(=O)O)C(C)C; Sar = CNCC(=O)O
# Tests used:
# MCF-7/WT = experiment: Cellular proliferation assay, IC50 of retinoids with/without cyclosporin A; format: cell-based
# [1] = tested on: ER-negative MDA-MB-231 cells; experiment: NO production, nitrite (Table 8); format: cell-based; conditions: cyclosporin A 4 μg/ml; CD437 2 μM; ATRA 1 μM; alone or combined as labelled; 3 days
# Excerpt: (§1) Liposomal 4-HPR in combination with cyclosporin A, increased iNOS production of NO in breast cancer cells (Table 3-5). […] Furthermore, an increase in the production of NO in these cells was not indicated with other retinoids such as CD437 and ATRA.
# ER-positive MCF-7 cells [2] = experiment: NO production, nitrite assay (Tables 5 and 7); format: cell-based; conditions: for increase of iNOS production of NO in the presence of cyclosporin A: both ER positive and ER negative breast cancer cells (Tables 7, 8)
# Excerpt: (§2) Nitric oxide (NO), an important biological second messenger, is known to induce growth inhibition and apoptosis in cells. Nitric oxide (NO) is biosynthesized by isoenzymes called nitric oxide synthases. One such isoenzyme, inducible NOS (iNOS), is present only after cytokine induction, such as interferon-γ (IFN-γ). […] Here, the ability of liposomal 4-HPR and IFN-γ to induce NO production and growth inhibition in breast cancer positive (Table 5) and breast cancer negative (Table 6) cells is examined by nitrite assays and growth inhibition assays, as known to the skilled artisan.
# (§3) It is also known to those skilled in the art that nitric oxide (NO) is a biologic mediator derived from the amino acid L-arginine. A family of enzymes, known as nitric oxide synthase (NOS), act upon L-arginine to oxidize one of the guanidino nitrogens to nitric oxide while citrulline is formed from the remainder of the L-arginine molecule.
# as §1
# [3] = cited from earlier work
# [4] = cited from earlier work; remark: listed apart in the source
# MCF-7/ADR = experiment: Cellular proliferation assay, IC50 of retinoids with/without cyclosporin A; format: cell-based
# [5] = cited from earlier work; remark: listed apart in the source
# ER-positive MCF-7 cells [6] = experiment: Growth inhibition, cell count (Table 6); format: cell-based; conditions: alone or with 4HPR 1 μM as labelled, 5 days
# Excerpt: Nitric oxide (NO), an important biological second messenger, is known to induce growth inhibition and apoptosis in cells. Nitric oxide (NO) is biosynthesized by isoenzymes called nitric oxide synthases. […]
# ER-positive MCF-7 cells [7] = experiment: Growth inhibition, cell count (Table 5); format: cell-based; conditions: alone or with 4HPR 1 μM as labelled, 5 days
# Excerpt: as §2
# ER-positive MCF-7 cells [8] = experiment: NO production, nitrite assay (Table 6); format: cell-based; conditions: alone or with 4HPR 1 μM as labelled, 5 days
# Excerpt: as §2, §3
# [9] = cyclosporin A 4 μg/ml, CD437 2 μM, ATRA 1 μM, alone or combined as labelled, 3 days
# [10] = without cyclosporin A, read-out: IC50 Without CsA
# [11] = single oral doses of about 0.6 mg/kg to about […]
molecule,measurement,setting,value
"CC1=C(/C=C/C(C)=C/C=C/C(C)=C/C(=O)O)C(C)(C)CCC1 [ATRA, all-trans-retinoic acid]",IC50,"MCF-7/WT; Homo sapiens, MCF7, cotreatment with CsA, concentration not marked, read-out: IC50 With CsA",0.287 µM
same,IC50,"MCF-7/WT; Homo sapiens, MCF7, without cyclosporin A, read-out: IC50 Without CsA",0.288 µM
same,Nitrite (NO production),[1],7.1 μM Nitrite /1 × 10^6 cells
same,increase of iNOS production of NO in the presence of cyclosporin A,ER-positive MCF-7 cells [2],not indicated
same,Nitrite (NO production),ER-positive MCF-7 cells [2]; [9],15.1 μM Nitrite /1 × 10^6 cells
"Cc1c2oc3c(C)ccc(C(=O)N[C@@H]4C(=O)N[C@H](C(C)C)C(=O)N5CCC[C@H]5C(=O)N(C)CC(=O)N(C)[C@@H](C(C)C)C(=O)O[C@@H]4C)c3nc-2c(C(=O)N[C@@H]2C(=O)N[C@H](C(C)C)C(=O)N3CCC[C@H]3C(=O)N(C)CC(=O)N(C)[C@@H](C(C)C)C(=O)O[C@@H]2C)c(N)c1=O [Actinomycin D] (I: T[dV]P[Sar][NMeV] / II: T[dV]P[Sar][NMeV]; ester I:1-I:C, II:1-II:C; linker I:N-II:N via Actinocin(9to1))",dose excreted intact into the bile,[3]; in vivo,Half of the dose
same,dose excreted intact into the urine,[3]; in vivo,10%
same,half-life,[3]; in vivo,about 36 hours
same,passage of the blood-brain barrier,[3]; in vivo,does not pass the blood-brain barrier
"CS(=O)(=O)OCCCCOS(C)(=O)=O [Busulfan, 1,4-butanediol dimethanesulfonate]",adults obtaining hematologic remission with regression or stabilization of organomegaly,[4]; previously untreated chronic myelogenous leukemia,Approximately 90%
O=C(O)c1ccc2cc(-c3ccc(O)c(C45CC6CC(CC(C6)C4)C5)c3)ccc2c1 [CD437],IC50,"MCF-7/ADR; cotreatment with CsA 2 μg/ml, read-out: IC50 With CsA",197 µM
same,IC50,"MCF-7/ADR; cotreatment with CsA 4 μg/ml, read-out: IC50 With CsA",1.19 µM
same,IC50,MCF-7/ADR; [10],1.58 µM
same,IC50,"MCF-7/WT; cotreatment with CsA, concentration not marked, read-out: IC50 With CsA",0.358 µM
same,IC50,MCF-7/WT; [10],0.287 µM
same,Nitrite (NO production),[1],59.3 μM Nitrite /1 × 10^6 cells
same,increase of iNOS production of NO in the presence of cyclosporin A,ER-positive MCF-7 cells [2],not indicated
same,Nitrite (NO production),ER-positive MCF-7 cells [2]; [9],71.8 μM Nitrite /1 × 10^6 cells
"O=C(O)CCCc1ccc(N(CCCl)CCCl)cc1 [Chlorambucil, 4-[bis(2-chlorethyl)amino] benzenebutanoic acid]",oral / gastrointestinal absorption,[3]; in vivo,rapidly and completely absorbed
same,terminal half-life of the parent drug,[3]; [11],about 1.5 hours
same,time to peak plasma chlorambucil levels,[3]; [11],within one hour
N.N.[Cl][Pt][Cl] [Cisplatin],oral / gastrointestinal absorption,[3]; in vivo,not absorbed orally
"COc1cccc2c1C(=O)c1c(O)c3c(c(O)c1C2=O)C[C@@](O)(C(C)=O)C[C@@H]3O[C@H]1C[C@H](N)[C@H](O)[C@H](C)O1 [Daunorubicin, 5,12-Naphthacenedione, (8S-cis)-8-acetyl-10-[(3-amino-2,3,6-trideoxy-a-L-lyxo-hexanopyranosyl)oxy]-7,8,9,10-tetrahydro-6,8,11-trihydroxy-10-methoxy-, hydrochloride]",oral / gastrointestinal absorption,[3]; in vivo,Oral absorption is poor
same,elimination half-life,[3]; in vivo,about 19 hours
same,secreted into the bile,[3]; in vivo,about 40%
"COc1cccc2c1C(=O)c1c(O)c3c(c(O)c1C2=O)C[C@@](O)(C(=O)CO)C[C@@H]3O[C@H]1C[C@H](N)[C@H](O)[C@H](C)O1 [Doxorubicin, 5,12-Naphthacenedione, (8s-cis)-10-[(3-amino-2,3,6-trideoxy-a-L-lyxo-hexopyranosyl)oxy]-7,8,9,1 0-tetrahydro-6,8,11-trihydroxy-8-(hydroxyacetyl)-1-methoxy-hydrochloride]",oral / gastrointestinal absorption,[3]; in vivo,absorbed poorly
same,elimination half-life,[3]; in vivo,about 30 hours
"O=NN(CCCl)C(=O)NC1CCCCC1 [Lomustine, 1-(2-chloro-ethyl)-3-cyclohexyl-l nitrosourea]",radioactivity excreted in the form of degradation products within 24 hours,"[3]; oral radioactive lomustine, about 30 mg/m^2 to 100 mg/m^2",about half
same,serum half-life of the metabolites,[3]; oral radioactive lomustine,about 16 hours to about 2 days
"N[C@@H](Cc1ccc(N(CCCl)CCCl)cc1)C(=O)O [Melphalan, 4-[bis(2-chloroethyl)amino]-L-phenylalanine]",proportion of patients with a favorable response,"[4]; multiple myeloma, oral administration",about one third to one half
CO[C@@]12[C@H](COC(N)=O)C3=C(C(=O)C(C)=C(N)C3=O)N1C[C@@H]1N[C@@H]12 [Mitomycin],time required to reduce the serum concentration by about 50%,[5]; 30 mg bolus injection,17 min
same,dose excreted unchanged in the urine,[5]; in vivo,Approximately 10%
COc1cccc2c1C(=O)c1c(O)c3c(c(O)c1C2=O)C[C@@](O)([C@H](C)O)C[C@@H]3O[C@H]1C[C@H](N)[C@H](O)[C@H](C)O1 [daunorubicinol],half-life of active metabolite,[3]; in vivo,about 27 hours
CC[C@]1(O)C[C@@H]2CN(CCc3c([nH]c4ccccc34)[C@@](C(=O)OC)(c3cc4c(cc3OC)N(C)[C@H]3[C@@](O)(C(=O)OC)[C@H](OC(C)=O)[C@]5(CC)C=CCN6CC[C@]43[C@@H]65)C2)C1 [vinblastine],administered dose recovered in the feces after biliary excretion,[3]; in vivo,about 10%
same,half-life of disappearance from plasma after distribution (first),[3]; intravenous injection,approximately 1 hours
same,half-life of disappearance from plasma after distribution (second),[3]; intravenous injection,~72000 s
CC[C@]1(O)C[C@H]2CN(CCc3c([nH]c4ccccc34)[C@@](C(=O)OC)(c3cc4c(cc3OC)N(C=O)[C@H]3[C@@](O)(C(=O)OC)[C@H](OC(C)=O)[C@]5(CC)C=CCN6CC[C@]43[C@@H]65)C2)C1 [vincristine],terminal half-life (clearance from plasma),[3]; in vivo,about 24 hours
"IFN-γ: Interferon gamma, cytokine that induces iNOS",Cell count,ER-positive MCF-7 cells [6]; IFN-γ 25 U/ml,51 × 10^4
same,Cell count,ER-positive MCF-7 cells [6]; IFN-γ 50 U/ml,52 × 10^4
same,Cell count,ER-positive MCF-7 cells [7]; IFN-γ 25 U/ml,254 × 10^4
same,Cell count,ER-positive MCF-7 cells [7]; IFN-γ 50 U/ml,258 × 10^4
same,Nitrite (NO production),"ER-positive MCF-7 cells [2]; IFN-γ 25 U/ml, alone or with 4HPR 1 μM as labelled, 5 days",7.1 ± 3.3 μM Nitrite /1 × 10^6 cells
same,Nitrite (NO production),"ER-positive MCF-7 cells [2]; IFN-γ 50 U/ml, alone or with 4HPR 1 μM as labelled, 5 days",6.6 ± 0.5 μM Nitrite /1 × 10^6 cells
same,Nitrite (NO production),ER-positive MCF-7 cells [8]; IFN-γ 25 U/ml,28.3 ± 4.1 μM Nitrite /1 × 10^6 cells
same,Nitrite (NO production),ER-positive MCF-7 cells [8]; IFN-γ 50 U/ml,24.4 ± 0.4 μM Nitrite /1 × 10^6 cells
